Measured values as given in patent US20110065595A1, “Method and Test Kit for the Rapid Identification and Characterization of Cells” (priority 2007, published 2011).

Test system: strain B of Bacillus cereus (β-lactamase SF-marker)
Assay: Sensitivity profile of B. cereus in soil suspension using inducible β-lactamase as SF-marker (iodometric starch-iodine decolorization)
Type: cell-based
Conditions: for inhibition of the enzymatic reaction / remaining part of the enzymatic reaction: compared with control sample; for increase of time needed for decolorization versus control: compared with control sample (47 seconds); for effect on activity / synthesis of the SF marker (β-lactamase) / sensitivity or resistance of strain B to the antibiotic: judged from decolorization time; for Decolorization time: soil suspension in nutrient broth with 1.0 mcg cloxacillin inducer, 10 min at 30° C., then Assay Reagent with phenoxymethylpenicillin, control without addition 47 seconds, activity inversely proportional to time
Experimental: Reagents • Nutrient broth and Nutrient Agar were purchased from Difco (cat. No. #233000 and #211665, respectively). • Mueller Hinton agar—purchased from Difco (cat. No. 225250). • Assay Reagent solution—50 mM potassium iodide and 10 mM iodine in 0.75% aqueous starch solution • L-alanine—was used for spore germination (purchased from Fluka, cat no. 29236).
BBL antibiotic sensitivity testing disks were used for sensitivity profiling were placed in respective test tubes:
Preparation of anti-penicillinase antibodies was previously described by the present inventor [Citri, N; et al. Nature 190 (478):1010-1011 (1961)]. Briefly neutralizing antiserum was prepared by immunizing rabbits with a highly purified preparation of exopenicillinase produced by strain 569/H of B. cereus. Twenty mg of the enzyme were administered with Freund's adjuvant in three intramuscular injections at ten-day intervals.
In order to perform a combined characterization of bacteria identification and antibiotic sensitivity profiling, the inventor used a strain of Bacillus cereus expressing the characterizing enzyme β-lactamase (penicillinase) that is used herein as a structural-functional marker (SF-marker).
A colony of strain B of Bacillus cereus was dispersed in 0.5 gm of garden soil suspended in 3 ml of distilled water. Samples of the suspension, 0.3 ml each, were placed in 5 test, tubes, each containing 0.5 ml nutrient broth [double strength] spiked with 1.0 mcg cloxacillin, and each supplemented as listed in Table 1 below. After 10 min. at 30° C. the test was initiated by the addition to each test tube of 0.1 ml of the Assay Reagent solution containing the substrate, phenoxymethylpenicillin [10 mg/mL]. The time required for complete decolorization of the starch-iodine complex by the product of the catalytic reaction was recorded as shown in Table 1.

| Compound | inhibition of the enzymatic reaction | remaining part of the enzymatic reaction | increase of time needed for decolorization versus control | effect on activity / synthesis of the SF marker (β-lactamase) | sensitivity or resistance of strain B to the antibiotic | Decolorization time |
| --- | --- | --- | --- | --- | --- | --- |
| C[C@H]1c2cccc(O)c2C(=O)C2=C(O)[C@]3(O)C(=O)C(C(N)=O)=C(O)[C@@H](N(C)C)[C@@H]3[C@@H](O)[C@@H]21 [Doxycyclin, Doxycycline] | about 99% | about 0.12% | about 17.3 folds | inhibited | sensitive | 815 s |
| CC[C@H]1OC(=O)[C@H](C)[C@@H](O[C@H]2C[C@@](C)(OC)[C@@H](O)[C@H](C)O2)[C@H](C)[C@@H](O[C@@H]2O[C@H](C)C[C@H](N(C)C)[C@H]2O)[C@](C)(O)C[C@@H](C)C(=O)[C@H](C)[C@@H](O)[C@]1(C)O [Erythromycin] | about 99% | about 0.12% | ~18 folds | inhibited | sensitive | >850 s |
| Gentamicin | – | – | – | no effect | resistant | 48 s |
